US11447487B2, “Spiroheptanyl hydantoins as rock inhibitors” (BRISTOL-MYERS SQUIBB COMPANY, priority 2017, dated 2022)

Each molecule was assayed against ROCK2 (Homo sapiens (Human), UniProt O75116) (assay: ROCK assay (Caliper LABCHIP peptide phosphorylation)). Details: 5 μM ATP, 1.5 μM peptide substrate.
Type: biochemical
Procedure: The effectiveness of compounds of the present invention as ROCK inhibitors can be determined in a 30 μL assay containing 20 mM HEPES, pH 7.5, 20 mM MgCl2, 0.015% Brij-35, 4 mM DTT, 5 μM ATP and 1.5 μM peptide substrate (FITC-AHA-AKRRRLSSLRA-OH) (SEQ ID No. 1). Compounds were dissolved in DMSO so that the final concentration of DMSO was <2%, and the reaction was initiated with Rho kinase variants. After incubation, the reaction was terminated by the addition of EDTA and the phosphorylated and non-phosphorylated peptides separated using a LABCHIP® 3000 Reader (Caliper Life Sciences). […] Compounds were tested in dose-response format, and the inhibition of kinase activity was calculated at each concentration of compound. The inhibition data were fit using a curve-fitting program to determine the IC50; i.e., the concentration of compound required to inhibit 50% of kinase activity. Representative Examples were tested in the ROCK assay described above and found having ROCK inhibitory activity. A range of ROCK inhibitory activity (IC50 values) of ≤50 μM (50000 nM) was observed. Table A below lists the ROCK IC50 values measured for the following examples.

Sequence of ROCK2 (O75116 whole entry, species assumed): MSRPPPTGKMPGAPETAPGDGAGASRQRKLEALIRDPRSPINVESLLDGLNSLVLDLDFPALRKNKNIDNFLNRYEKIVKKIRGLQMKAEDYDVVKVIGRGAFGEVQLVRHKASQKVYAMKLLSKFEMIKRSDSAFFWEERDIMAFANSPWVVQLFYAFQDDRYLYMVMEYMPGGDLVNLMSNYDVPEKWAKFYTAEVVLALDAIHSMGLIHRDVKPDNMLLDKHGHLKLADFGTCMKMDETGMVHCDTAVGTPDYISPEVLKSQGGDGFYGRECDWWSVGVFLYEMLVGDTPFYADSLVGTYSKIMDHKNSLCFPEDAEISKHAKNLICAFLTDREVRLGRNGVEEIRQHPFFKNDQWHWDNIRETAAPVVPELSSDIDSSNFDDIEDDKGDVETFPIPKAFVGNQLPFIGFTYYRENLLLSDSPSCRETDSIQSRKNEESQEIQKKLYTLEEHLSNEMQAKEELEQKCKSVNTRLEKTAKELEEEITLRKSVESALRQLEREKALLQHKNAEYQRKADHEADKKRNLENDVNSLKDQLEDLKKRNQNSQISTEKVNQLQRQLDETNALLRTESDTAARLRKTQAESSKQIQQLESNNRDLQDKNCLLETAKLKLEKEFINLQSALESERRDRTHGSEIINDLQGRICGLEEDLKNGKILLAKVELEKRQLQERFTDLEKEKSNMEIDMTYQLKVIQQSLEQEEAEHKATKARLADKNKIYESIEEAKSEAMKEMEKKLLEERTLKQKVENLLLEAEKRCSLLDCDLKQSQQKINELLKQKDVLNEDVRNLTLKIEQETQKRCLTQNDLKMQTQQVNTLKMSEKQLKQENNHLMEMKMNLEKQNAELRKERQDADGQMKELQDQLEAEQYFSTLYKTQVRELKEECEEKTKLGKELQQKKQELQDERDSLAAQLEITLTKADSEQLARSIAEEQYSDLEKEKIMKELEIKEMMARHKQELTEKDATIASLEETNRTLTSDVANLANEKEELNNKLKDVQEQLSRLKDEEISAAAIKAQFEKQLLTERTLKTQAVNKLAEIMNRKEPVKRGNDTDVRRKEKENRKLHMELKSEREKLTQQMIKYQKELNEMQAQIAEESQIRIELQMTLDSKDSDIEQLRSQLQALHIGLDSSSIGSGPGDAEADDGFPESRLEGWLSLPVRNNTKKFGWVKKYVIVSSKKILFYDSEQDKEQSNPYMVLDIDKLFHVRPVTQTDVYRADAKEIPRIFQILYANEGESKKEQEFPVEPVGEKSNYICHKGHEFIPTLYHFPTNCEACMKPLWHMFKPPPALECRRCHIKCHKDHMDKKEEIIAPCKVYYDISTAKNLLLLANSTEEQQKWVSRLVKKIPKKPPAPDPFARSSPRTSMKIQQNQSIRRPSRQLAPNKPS

IC50 [nM] | SMILES
62 | NC(=O)c1cccnc1O[C@H]1C[C@]2(C1)C[C@H](N1C(=O)NC(CCC(F)(F)F)C1=O)C2 (stereo partly drawn) [Example 29, 2-{[(αR)-6-[2,5-dioxo-4-(3,3,3-trifluoropropyl)-imidazolidin-1-yl]spiro[3.3]-heptan-2-yl]oxy}-pyridine-3-carbox-amide]
89 | CSCC[C@@H]1NC(=O)N([C@H]2C[C@@]3(C[C@H](Oc4ncccc4C(N)=O)C3)C2)C1=O (stereo partly drawn) [Example 30, 2-{[(αR)-6-[(4S)-4-[2-(methyl-sulfanyl)ethyl]-2,5-dioxoimidazol-idin-1-yl]spiro-[3.3]heptan-2-yl]-oxy}pyridine-3-carboxamide]
123 | CCC[C@@H]1NC(=O)N([C@H]2C[C@@]3(C[C@H](Oc4ncccc4C(N)=O)C3)C2)C1=O (stereo partly drawn) [Example 31, 2-{[(αR)-6-[(4S)-2,5-dioxo-4-propyl-imidazolidin-1-yl]-spiro[3.3]heptan-2-yl]oxy}pyridine-3-carboxamide]
156 | NC(=O)c1cccnc1O[C@H]1C[C@]2(C1)C[C@H](N1C(=O)N[C@@H](CC(F)(F)F)C1=O)C2 (stereo partly drawn) [Example 32, 2-{[(αR)-6-[(4S)-2,5-dioxo-4-(2,2,2-trifluoroethyl)-imidazolidin-1-yl]-spiro[3.3]heptan-2-yl]oxy}pyridine-3-carboxamide]
426 | NC(=O)c1cccnc1O[C@H]1C[C@]2(C1)C[C@H](N1C(=O)N[C@@H](CCOCc3ccccc3)C1=O)C2 (stereo partly drawn) [Example 33, 2-{[(αR)-6-[(4S)-4-[2-(benzyloxy)-ethyl]-2,5-dioxo-imidazolidin-1-yl]-spiro[3.3]heptan-2-yl]oxy}pyridine-3-carboxamide]
539 | NC(=O)c1cccnc1OC1CC2(C1)CC(N1C(=O)N[C@H](Cc3ccccc3)C1=O)C2 (stereo partly drawn) [Example 34, 2-({6-[(4R)-4-benzyl-2,5-dioxo-imidazolidin-1-yl]-spiro[3.3]heptan-2-yl}oxy)pyridine-3-carboxamide]
1660 | CC[C@@H]1NC(=O)N([C@H]2C[C@@]3(C[C@H](Oc4ncccc4C(N)=O)C3)C2)C1=O (stereo partly drawn) [Example 35, 2-{[(αR)-6-((4S)-4-ethyl-2,5-dioxo-imidazolidin-1-yl]-spiro[3.3]heptan-2-yl]oxy}pyridine-3-carboxamide]
2390 | COC[C@@H]1NC(=O)N([C@H]2C[C@@]3(C[C@H](Oc4ncccc4C(N)=O)C3)C2)C1=O (stereo partly drawn) [Example 36, 2-{[(αR)-6-[(4S)-4-(methoxymethyl)-2,5-dioxoimidazol-idin-1-yl]spiro-[3.3]heptan-2-yl]-oxy}pyridine-3-carboxamide]
44 | [H][C@]1(Oc2ncccc2C(N)=O)C[C@]2(C[C@@H](N3C(=O)NC(CCC4CC4)C3=O)C2)C1 (stereo partly drawn) [Example 37]
14 | CCCC(C)CC1NC(=O)N([C@H]2C[C@@]3(C[C@H](Oc4ncccc4C(N)=O)C3)C2)C1=O (stereo partly drawn) [Example 39, 2-{[(αR)-6-[4-(2-methylpentyl)-2,5-dioxoimidazolidin-1-yl]spiro[3.3]-heptan-2-yl]oxy}-pyridine-3-carbox-amide]
19 | CCC(C)CC1NC(=O)N([C@H]2C[C@@]3(C[C@H](Oc4ncccc4C(N)=O)C3)C2)C1=O (stereo partly drawn) [Example 41, 2-{[(αR)-6-[4-(2-methylbutyl)-2,5-dioxoimidazolidin-1-yl]spiro[3.3]-heptan-2-yl]oxy}-pyridine-3-carbox-amide]
29 | CC(C)CC1NC(=O)N([C@H]2C[C@@]3(C[C@H](Oc4ncccc4C(N)=O)C3)C2)C1=O (stereo partly drawn) [Example 44, 2-{[(αR)-6-[4-(2-methylpropyl)-2,5-dioxoimidazolidin-1-yl]spiro[3.3]-heptan-2-yl]oxy}-pyridine-3-carbox-amide]
30 | NC(=O)c1cccnc1O[C@H]1C[C@]2(C1)C[C@H](N1C(=O)NC(CC3CCCC3)C1=O)C2 (stereo partly drawn) [Example 45, 2-{[(αR)-6-[4-(cyclopentyl-methyl)-2,5-dioxo-imidazolidin-1-yl]spiro[3.3]-heptan-2-yl]oxy}-pyridine-3-carbox-amide]
48 | NC(=O)c1cccnc1O[C@H]1C[C@]2(C1)C[C@H](N1C(=O)NC(CC3CC(F)(F)C3)C1=O)C2 (stereo partly drawn) [Example 46, 2-{[(αR)-6-{4-[(3,3-difluorocyclo-butyl)methyl]-2,5-dioxoimidazolidin-1-yl}spiro[3.3]-heptan-2-yl]oxy}-pyridine-3-carbox-amide]
99 | NC(=O)c1cccnc1O[C@H]1C[C@]2(C1)C[C@H](N1C(=O)NC(CCC(F)(F)F)C1=O)C2 (stereo partly drawn) [Example 49, 2-{[(αR)-6-[2,5-dioxo-4-(3,3,3-trifluoropropyl)-imidazolidin-1-yl]-spiro[3.3]heptan-2-yl]oxy}pyridine-3-carboxamide]
155 | CCC(CC)C1NC(=O)N([C@H]2C[C@@]3(C[C@H](Oc4ncccc4C(N)=O)C3)C2)C1=O (stereo partly drawn) [Example 51, 2-{[(αR)-6-[2,5-dioxo-4-(pentan-3-yl)imidazolidin-1-yl]spiro[3.3]heptan-2-yl]oxy}pyridine-3-carboxamide]
186 | CC(C)CCC1NC(=O)N([C@H]2C[C@@]3(C[C@H](Oc4ncccc4C(N)=O)C3)C2)C1=O (stereo partly drawn) [Example 54, 2-{[(αR)-6-[4-(3-methylbutyl)-2,5-dioxoimidazolidin-1-yl]spiro[3.3]-heptan-2-yl]oxy}-pyridine-3-carbox-amide]
289 | CC(C)(O)CC1NC(=O)N([C@H]2C[C@@]3(C[C@H](Oc4ncccc4C(N)=O)C3)C2)C1=O (stereo partly drawn) [Example 58, 2-{[(αR)-6-[4-(2-hydroxy-2-methyl-propyl)-2,5-dioxo-imidazolidin-1-yl]-spiro[3.3]heptan-2-yl]oxy}pyridine-3-carboxamide]
421 | CC(C)(O)CCC1NC(=O)N([C@H]2C[C@@]3(C[C@H](Oc4ncccc4C(N)=O)C3)C2)C1=O (stereo partly drawn) [Example 62, 2-{[(αR)-6-[4-(3-hydroxy-3-methyl-butyl)-2,5-dioxo-imidazolidin-1-yl]-spiro[3.3]heptan-2-yl]oxy}pyridine-3-carboxamide]
617 | NC(=O)c1cccnc1O[C@H]1C[C@]2(C1)C[C@H](N1C(=O)C(=O)N(CC3CCC3)C1=O)C2 (stereo partly drawn) [Example 63, 2-{[(αR)-6-[3-(cyclobutyl-methyl)-2,4,5-tri-oxoimidazolidin-1-yl]spiro[3.3]-heptan-2-yl]oxy}-pyridine-3-carbox-amide]
968 | CC(C)CCN1C(=O)C(=O)N([C@H]2C[C@@]3(C[C@H](Oc4ncccc4C(N)=O)C3)C2)C1=O (stereo partly drawn) [Example 65, 2-{[(αR)-6-[3-(3-methylbutyl)-2,4,5-trioxo-imidazolidin-1-yl]spiro[3.3]-heptan-2-yl]oxy}-pyridine-3-carbox-amide]
1550 | NC(=O)c1cccnc1O[C@H]1C[C@]2(C1)C[C@H](N1C(=O)NC(CCCS(N)(=O)=O)C1=O)C2 (stereo partly drawn) [Example 66, 2-{[(αR)-6-[2,5-dioxo-4-(3-sulfam-oylpropyl)imidazol-idin-1-yl]spiro-[3.3]heptan-2-yl]-oxy}pyridine-3-carboxamide]
1780 | CC(C)CN1C(=O)C(=O)N([C@H]2C[C@@]3(C[C@H](Oc4ncccc4C(N)=O)C3)C2)C1=O (stereo partly drawn) [Example 67, 2-{[(αR)-6-[3-(2-methylpropyl)-2,4,5-trioxo-imidazolidin-1-yl]-spiro[3.3]heptan-2-yl]oxy}pyridine-3-carboxamide]
16 | NC(=O)c1cccnc1O[C@H]1C[C@]2(C1)C[C@H](N1C(=O)NC(CC3CC4CCC3C4)C1=O)C2 (stereo partly drawn) [Example 69, 2-{[(αR)-6-[4-({bicyclo[2.2.1]-heptan-2-yl]}-methyl)-2,5-dioxo-imidazolidin-1-yl]-spiro[3.3]heptan-2-yljoxy}pyridine-3-carboxamide]
20 | NC(=O)c1cccnc1O[C@H]1C[C@]2(C1)C[C@H](N1C(=O)NC(CC3CC4CCC3CC4)C1=O)C2 (stereo partly drawn) [Example 70, 2-{[(αR)-6-[4-({bicyclo[2.2.2]-octan-2-yl}-methyl)-2,5-dioxo-imidazolidin-1-yl]spiro[3.3]-heptan-2-yl]oxy}-pyridine-3-carbox-amide]
36 | CC(CCC1NC(=O)N([C@H]2C[C@@]3(C[C@H](Oc4ncccc4C(N)=O)C3)C2)C1=O)C(F)(F)F (stereo partly drawn) [Example 71, 2-{[(αR)-6-[2,5-dioxo-4-(4,4,4-trifluoro-3-methyl-butyl)imidazolidin-1-yl]spiro[3.3]-heptan-2-yl]oxy}-pyridine-3-carbox-amide]
885 | Cc1c(CC2NC(=O)N([C@H]3C[C@@]4(C[C@H](Oc5ncccc5C(N)=O)C4)C3)C2=O)cnn1C (stereo partly drawn) [Example 72, 2-{[(αR)-6-{4-[(1,5-dimethyl-1H-pyrazol-4-yl)-methyl]-2,5-dioxo-imidazolidin-1-yl}-spiro[3.3]heptan-2-yl]oxy}pyridine-3-carboxamide]
2280 | NC(=O)c1cccnc1O[C@H]1C[C@]2(C1)C[C@H](N1C(=O)NC(Cc3ccncc3)C1=O)C2 (stereo partly drawn) [Example 73, 2-{[(αR)-6-{2,5-dioxo-4-[(pyridin-4-yl)methyl]-imidazolidin-1-yl}-spiro[3.3]heptan-2-yl]oxy}pyridine-3-carboxamide]
75 | [H][C@]1(Oc2ncccc2C(N)=O)C[C@@]2(C[C@H](N3C(=O)C[C@H](CCc4ccccc4)NC3=O)C2)C1 (stereo partly drawn) [Example 74]
138 | CC[C@H](C)[C@H]1CC(=O)N([C@H]2C[C@@]3(C[C@H](Oc4ncccc4C(N)=O)C3)C2)C(=O)N1 (stereo partly drawn) [Example 75, 2-{[(αR)-6-[(4R)-4-[(2S)-butan-2-yl]-2,6-dioxo-1,3-diazinan-1-yl]-spiro[3.3]heptan-2-yl]oxy}pyridine-3-carboxamide]
